Measured values taken from patent US11401236B2, “Resorcinol derivatives for their cosmetic use” (L'OREAL, priority 2017, dated 2022).
Values joined by “and” are separate entries in the source; they are usually repeats but may differ in a detail not shown here. Equal values may be shown once. Read-outs that look alike come from different tables or passages of the source.

Key:
normal human melanocytes = experiment: Depigmenting activity: reduction of melanin production in normal human melanocytes in vitro; assay type: cell-based; conditions: Melanocyte
Description: The measurement of the depigmenting activity (reduction of melanin production) of compounds of formula (I) was performed by assaying normal human melanocytes in vitro as follows.
First of all, normal human melanocytes were cultured and dispensed into 384 wells. After 24 hours, the culture medium was replaced with a medium containing compounds of formula (I) to be evaluated. The cells were incubated for 72 hours before measurement of the final optical density, which measures the amount of melanin produced by the melanocytes. A dose effect was performed using a wide concentration range of the compounds evaluated. Thus, by making the concentrations and the measurements of melanin correspond, it is possible to determine an IC50 in μM: concentration at which 50% decrease in melanin synthesis is achieved.

[1] = test system: coculture of keratinocytes and melanocytes; experiment: Modulatory effect on melanogenesis and cytotoxicity in a coculture of keratinocytes and melanocytes; assay type: cell-based; conditions: for IC50: melanin optical density, read-out: IC50 (concentration for which 50% of the melanin synthesis is inhibited)
Description: The modulatory effect on melanogenesis of each compound was measured according to the method described in the patent FR-A-2734825, and also in the article by R. Schmidt, P. Krien and M. Régnier, Anal. Biochem., 235(2), 113-18, 1996. This test is carried out on a coculture of keratinocytes and melanocytes. For the compounds tested, the following were determined: • the cytotoxicity, • the inhibitory activity on melanin synthesis, by estimating the melanin optical density, • the IC50 values (concentration for which 50% of the melanin synthesis is inhibited).

[2] = test system: pigmented reconstructed epidermis; experiment: Experiment on pigmented reconstructed epidermis (melanin versus solvent); assay type: cell-based
From the text: Experiment on pigmented reconstructed epidermis

[3] = Stability of the compound (statement in the synthesis example); assay type: physicochemical; conditions: no conditions given
[4] = Homo sapiens, prior-art comparison compounds, compared with the Table 2 results, melanin synthesis in normal human melanocytes, read-out: IC50 value
[5] = Table 2 test campaign, normal human melanocytes, 72 hours incubation, concentration at which 50% decrease in melanin synthesis is achieved, maximum concentration tested 200 μM, read-out: IC50
[6] = Homo sapiens, 72 h, Table 3 test campaign, normal human melanocytes, 72 hours incubation, 50% decrease in melanin synthesis, maximum concentration tested 200 μM, read-out: IC50

| Structure (SMILES) | IC50 (normal human melanocytes; [5]) | melting point | IC50 (normal human melanocytes; [6]) | also measured |
| --- | --- | --- | --- | --- |
| O=C(O)CCc1ccc(O)cc1O [(C), reference compound] | – | – | – | IC50 (normal human melanocytes; [4]): 63100 nM |
| CCOC(=O)CCC(C)c1ccc(O)cc1O (centres unmarked) [Compound 30, ethyl 4-(2,4-dihydroxyphenyl)pentanoate] | 1010 nM | – | – | – |
| CC(C)NC(=O)CCC(C)c1ccc(O)cc1O (centres unmarked) [Compound 3, 4-(2,4-dihydroxyphenyl)-N-(propan-2-yl)pentanamide] | 617 nM | 60 to 65 °C and 56 °C | – | – |
| CCOC(=O)[C@H](Cc1ccccc1)NC(=O)CCC(C)c1ccc(O)cc1O (some centres unmarked) [Compound 22, ethyl N-[4-(2,4-dihydroxyphenyl)pentanoyl]phenylalaninate] | – | 51 to 59 °C | 8330 nM | – |
| COC(=O)CC(C)c1ccc(O)cc1O (centres unmarked) [(B), reference compound] | – | – | – | IC50 (normal human melanocytes; [4]): 4970 nM |
| CC(CCC(=O)NCC(=O)O)c1ccc(O)cc1O (centres unmarked) [Compound 14, N-[4-(2,4-dihydroxyphenyl)pentanoyl]glycine] | – | 59 to 65 °C | 18500 nM | – |
| CC(CCC(=O)NCC1CCCCC1)c1ccc(O)cc1O (centres unmarked) [Compound 7, N-(cyclohexylmethyl)-4-(2,4-dihydroxyphenyl)pentanamide] | 401 nM | – | – | – |
| CC(CCC(=O)OC[C@@H](O)[C@H](O)[C@@H](O)CO)c1ccc(O)cc1O (stereo partly drawn) [Compound 32, 5-O-[4-(2,4-dihydroxyphenyl)pentanoyl]-D-xylitol] | 3030 nM | – | – | – |
| CCN(CCO)C(=O)CCC(C)c1ccc(O)cc1O (centres unmarked) [Compound 26, 4-(2,4-dihydroxyphenyl)-N-ethyl-N-(2-hydroxyethyl)pentanamide] | 1960 nM | – | – | cytotoxicity [1]: non-cytotoxic; IC50 [1]: 450 nM |
| CCOC(=O)C(C)NC(=O)CCC(C)c1ccc(O)cc1O (racemic) [Compound 17, ethyl N-[4-(2,4-dihydroxyphenyl)pentanoyl]-DL-alaninate] | – | – | 391 nM | cytotoxicity [1]: non-cytotoxic; IC50 [1]: 120 nM |
| CCNC(=O)CCC(C)c1ccc(O)cc1O (centres unmarked) [Compound 2, 4-(2,4-dihydroxyphenyl)-N-ethylpentanamide] | 824 nM | – | – | depigmenting efficiency ([2]; comparison with lucinol): greater than lucinol; Comparison of melanin with respect to the solvent (DMSO) ([2]; effective concentration 50 μM): −26% |
| CC(CCC(N)=O)c1ccc(O)cc1O (centres unmarked) [Compound 10, 4-(2,4-dihydroxyphenyl)pentanamide] | 1070 nM | 54 to 56 °C | – | – |
| CNC(=O)/C=C/c1ccc(O)cc1O [(A), reference compound] | – | – | – | IC50 (normal human melanocytes; [4]): 3860 nM |
| CCC(C)NC(=O)CCC(C)c1ccc(O)cc1O (centres unmarked) [Compound 5, N-(butan-2-yl)-4-(2,4-dihydroxyphenyl)pentanamide] | 447 nM | – | 391 nM | – |
| COCCN(CCOC)C(=O)CCC(C)c1ccc(O)cc1O (centres unmarked) [Compound 25, 4-(2,4-dihydroxyphenyl)-N,N-bis(2-methoxyethyl)pentanamide] | – | 78 to 81 °C | 5270 nM | – |
| CC(CCC(=O)NCCO)c1ccc(O)cc1O (centres unmarked) [Compound 9, 4-(2,4-dihydroxyphenyl)-N-(2-hydroxyethyl)pentanamide] | 636 nM | – | – | – |
| CC(CCC(=O)NC1CCCCC1)c1ccc(O)cc1O (centres unmarked) [Compound 6, N-cyclohexyl-4-(2,4-dihydroxyphenyl)pentanamide] | 557 nM | 75 to 78 °C | 391 nM | cytotoxicity [1]: non-cytotoxic; IC50 [1]: 140 nM |
| CC(CCC(=O)OCCCNC(=O)C1OC(C)(C)OCC1(C)C)c1ccc(O)cc1O (centres unmarked) [Compound 34, 3-{[(2,2,5,5-tetramethyl-1,3-dioxan-4-yl)carbonyl]amino}propyl 4-(2,4-dihydroxyphenyl)pentanoate] | 2950 nM | – | – | – |
| CC(CCC(=O)NCCc1ccc(O)cc1)c1ccc(O)cc1O (centres unmarked) [Compound 8, 4-(2,4-dihydroxyphenyl)-N-[2-(4-hydroxyphenyl)ethyl]pentanamide] | 391 nM | – | – | – |
| CC(CCC(=O)N[C@H](C)C(=O)O)c1ccc(O)cc1O (stereo partly drawn) [Compound 18, N-[4-(2,4-dihydroxyphenyl)pentanoyl]-D-alanine] | 1630 nM | 65 to 68 °C | – | – |
| CCOC(=O)CN(C)C(=O)CCC(C)c1ccc(O)cc1O (centres unmarked) [Compound 27, ethyl N-[4-(2,4-dihydroxyphenyl)pentanoyl]-N-methylglycinate] | – | – | 51300 nM | – |
| COC(=O)[C@H](CC(C)C)NC(=O)CCC(C)c1ccc(O)cc1O (some centres unmarked) [Compound 20, methyl N-[4-(2,4-dihydroxyphenyl)pentanoyl]leucinate] | 1580 nM | 63 °C | 1200 nM | – |
| CC(CCC(=O)O)c1ccc(O)cc1O (centres unmarked) [Compound 1, 4-(2,4-dihydroxyphenyl)pentanoic Acid] | 4800 nM | – | – | stability of the compound [3]: stable |
| CCN(CC)C(=O)CCC(C)c1ccc(O)cc1O (centres unmarked) [Compound 24, 4-(2,4-dihydroxyphenyl)-N,N-diethylpentanamide] | 1020 nM | – | – | – |
| CCCCNC(=O)CCC(C)c1ccc(O)cc1O (centres unmarked) [Compound 4, N-butyl-4-(2,4-dihydroxyphenyl)pentanamide] | 692 nM | – | – | – |
| CCCCc1ccc(O)cc1O [Lucinol, 4-n-butyl resorcinol, reference compound] | – | – | – | IC50 [1]: 790 nM; Comparison of melanin with respect to the solvent (DMSO) ([2]; effective concentration 500 μM): −25% |
| CC(CCC(=O)N(C)CC(=O)O)c1ccc(O)cc1O (centres unmarked) [Compound 28, N-[4-(2,4-dihydroxyphenyl)pentanoyl]-N-methylglycine] | – | – | 31100 nM | – |
| CCOC(=O)[C@H](C)NC(=O)CCC(C)c1ccc(O)cc1O (stereo partly drawn) [Compound 15, ethyl N-[4-(2,4-dihydroxyphenyl)pentanoyl]-L-alaninate] | 1080 nM | 48 to 50 °C | – | – |
| CC(CCC(=O)N1CCOCC1)c1ccc(O)cc1O (centres unmarked) [Compound 29, 4-(2,4-dihydroxyphenyl)-1-(morpholin-4-yl)pentan-1-one] | 2940 nM | – | 1820 nM | – |
| CCNC(=O)CCC(C)c1ccc(OC(C)=O)cc1OC(C)=O (centres unmarked) [Compound 11, 4-[5-(ethylamino)-5-oxopentan-2-yl]benzene-1,3-diyl diacetate] | 940 nM | – | – | – |
